From patent US10329249B1, “Sulindac derivatives” (KING SAUD UNIVERSITY, priority 2018, dated 2019)
Marks after values point to notes of the source that are not given here.

What was measured:
[1] = tested on: carrageenan-induced paw edema; assay: Carrageenan induced paw edema; type: in vivo, rats; settings: Sulindac 100 mg/kg oral; for Paw volume before carrageenan: baseline, groups Compound 8 150 mg/kg, in mL (unit assumed)
Method: (§1) All animal experiments used healthy male albino rats (200 g-220 g) and mice. The animals were kept in standard plastic animal cages in groups of six animals each with a 12 hour light and dark cycle. The animals were acclimatized to laboratory conditions for a week prior to the experiments.
In a Carrageenan induced paw edema in rats study, Carrageenan sodium salt (0.05 mL of 1% BDH) was injected into the right hind foot of each rat (male or female, 200-220 g) under the plantar aponeurosis. The test group of was treated orally with a Sulindac derivative compound 1 hour before carrageenan injection. At the same time, the control group was given 5 mL/kg of normal saline and the reference group was given 100 mg/kg of an aqueous solution of sulindac. […] Inhibitory activity was calculated using the following:
[formula] where “B” is the mean paw volume of control rats after carrageenan injection, “Y” is the mean paw volume of control rats before the carrageenan injection, “X” is the mean paw volume of treated rats before carrageenan injection, and “A” is the mean paw volume of treated rats after the carrageenan injection.

malondialdehyde (MDA) = assay: Determination of malondialdehyde in stomach tissue; type: in vivo, rats; settings: Sulindac 100, Compound 8 150, mean ±SEM
Method: In a study for the determination of malondialdehyde, non-protein sulfhydryls, and total protein, stomach tissues were removed from rats, and each tissue was homogenized in 0.15M KCl to give a 10% w/v homogenate. Aliquots of homogenate (1 mL) were incubated at 37° C. for three hours in a metabolic shaker. Then 1 mL of 10% aqueous trichloroacetic acid was added to the homogenate and mixed. This suspension was then centrifuged at 4000 rpm for 10 min. […] The mixture was cooled and diluted with 1 mL of distilled water. The absorbance of the solution was then read at 535 nm. The content of malondialdehyde (MDA) (nmol/g) was then calculated by reference to a standard curve of MDA solution.

[2] = tested on: non-protein sulfhydryls (NP-SH); assay: Non-protein sulfhydryls in stomach tissue; type: in vivo, rats; settings: Sulindac 100, Compound 8 150, mean ±SEM
Method: […] non-protein sulfhydryls (NP-SH) were measured by homogenizing rat stomach tissues in ice cold 0.02 mmol/L ethylenediaminetetraacetic acid (EDTA). Aliquots of 5 mL of the homogenates were mixed in 15 mL test tube with 4 mL of distilled water and 1 mL of 50% trichloroacetic acid (TCA). The test tubes were shaken intermittently for 10 min. and centrifuged at 3000 rpm for 10 min. A total of 2 mL supernatant was mixed with 4 mL of […] tris buffer (pH 8.9). A total of 0.1 mL of 5,5-dithiobis(2-nitrobenzoic acid) ([…]) was added, and the sample was shaken. The absorbance was measured within 5 min. of addition of DTNB at 412 nm and compared to a reagent blank.

Total Protein (TP) = assay: Total protein in gastric juice; type: in vivo, rats; settings: Sulindac 100, Compound 8 150, mean ±SEM
Method: Total Protein (TP), or dissolved proteins in gastric juice, was estimated through alcohol precipitation. 90% alcohol was added to gastric juice at a 9:1 ratio, and then 0.1 ml of the alcoholic precipitate of gastric juice was dissolved in 1 ml of 0.1 N NaOH, and 0.05 ml of this suspension was placed in a test tube. 4 ml of an alkaline mixture was then added to the test tube and incubated at room temperature for 10 minutes. 0.4 ml of a phenol reagent was then added, and after a further 10 minutes, once color had developed, a reading was taken against a blank containing distilled water at 610 nm on a spectrophotometer. TP content was then calculated from a standard curve prepared with bovine albumin and expressed as g/L of gastric juice. Results were calculated by ANOVA followed by Dunnett's multiple comparison test and are summarized in Table 9, represent mean±SEM; **=p<0.01; ***=p<0.001 (n=6).

[3] = tested on: gastric lesions induced by indomethacin; assay: Gastric lesions induced by indomethacin; type: in vivo, rats; settings: for Ulcer Index: rats given indomethacin 30 mg/kg oral, Sulindac 100 mg/kg, Compound 8 150 mg/kg half an hour before, mean ±SEM
Method: as §1
In a study of the effect of sulindac derivatives on gastric lesions induced by indomethacin, a suspension of indomethacin in 1.0% carboxymethylcellulose (CMC) in water (6 mg/mL) at a dose of (30 mg/kg) body weight was administered orally to rats. Control rats were treated with the vehicle. Sulindac derivative Compound 8 was administered half an hour prior to indomethacin administration at a dose of 150 mg/kg.

[4] = tested on: acute nociception (tail flick); assay: Analgesic study by tail flick method; type: in vivo, mice; settings: Sulindac 100 mg/kg oral; for % Inhibition 30 min / Reaction Time 30 min / % Inhibition 60 min / Reaction Time 60 min / % Inhibition 120 min / Reaction Time 120 min: Compound 8 150 mg/kg; for Reaction Time 30 min / Reaction Time 60 min / Reaction Time 120 min / Reaction Time, Pre-drug: mean ±SEM; for Reaction Time, Pre-drug: pre-drug baseline, groups Compound 8 150 mg/kg
Method: as §1
In an analgesic study by tail flick method, acute nociception was assessed using a tail flick apparatus (Tail Flick model DS 20 Sorrel Apelex, France). Briefly, each animal was placed in a restrainer 2 min. before treatment and baseline reaction time was measured by focusing an intensity controlled beam of light on the distal one-third portion of the animal's tail. […] A 10 sec cut off time was used in order to prevent tissue damage.

hot plate nociception = assay: Analgesic activity by hot plate method; type: in vivo, mice; settings: Sulindac 100 mg/kg oral; for % Inhibition 30 min / Reaction Time 30 min / % Inhibition 60 min / Reaction Time 60 min / % Inhibition 120 min / Reaction Time 120 min: Compound 8 150 mg/kg; for Reaction Time 30 min / Reaction Time 60 min / Reaction Time 120 min / Reaction Time, Pre-drug: mean ±SEM; for Reaction Time, Pre-drug: pre-drug baseline, groups Compound 8 150 mg/kg
Method: as §1
In an analgesic activity by hot plate method study, animals were dropped gently on a hot plate maintained at […]. Reaction time was recorded as the interval extending from the instant the animal reached the hot plate until the moment the animal licked its forefeet or jumped off. […]

[5] = tested on: acetic acid induced writhing; assay: Analgesic activity by acetic acid induced writhing; type: in vivo, mice; settings: Compound 8 150 mg/kg, Sulindac 100 mg/kg; for % Inhibition (writhing): versus acetic acid group; for Movements (writhing): counted for 20 minutes after i.p. acetic acid, mean ±SEM
Method: as §1
In an analgesic activity by writhing study, writhing was induced in mice by intraperitoneal administration of 0.1 mL of 1% acetic acid. The number of writhing movements was counted for 20 minutes. The writhing test was performed after the administration of the vehicle or sulindac derivative compound.

[6] = Compound 8 150 mg/kg, mean ±SEM
[7] = 5 hours, Compound 8 150 mg/kg, mean ±SEM

Structure (SMILES) | % Inhibition of paw edema after 3 hours ([1]; Compound 8 150 mg/kg) [%] | Increased paw volume after 3 hours, Mean [1, 6] | Increased paw volume after 3 hours, Net [1, 6] | % Inhibition of paw edema after 5 hours ([1]; 5 hours, Compound 8 150 mg/kg) [%] | Increased paw volume after 5 hours, Mean [1, 7] | Paw volume before carrageenan ([1]; mean ±SEM) | MDA (malondialdehyde (MDA); drug alone, no ethanol) [nmol/g] | MDA (malondialdehyde (MDA); with 80% Ethanol 1 mL) [nmol/g] | NP-SH ([2]; drug alone, no ethanol) [nmol/g] | NP-SH ([2]; with 80% Ethanol 1 mL) [nmol/g] | TP (Total Protein (TP); drug alone, no ethanol) | TP (Total Protein (TP); with 80% Ethanol 1 mL) | Ulcer Index [3] | % Inhibition 30 min [4] [%] | Reaction Time 30 min [4] [s] | % Inhibition 60 min [4] [%] | Reaction Time 60 min [4] [s] | % Inhibition 120 min [4] [%] | Reaction Time 120 min [4] [s] | Reaction Time, Pre-drug [4] [s] | also measured
CC1=C(CC(=O)N/N=C\c2ccc(N(C)C)cc2)c2cc(F)ccc2/C1=C\c1ccc([S+](C)[O-])cc1 (stereo not drawn) [Compound 8] | 50.52 | 1.34 ± 0.02 | 0.31 ± 0.03 | 50.54 | 1.33 ± 0.01 | 1.02 ± 0.02 | 1.06 ± 0.02 | 1.59 ± 0.06 | 7.52 ± 0.31 | 6.62 ± 0.26 | 114.57 ± 1.89*** g/L | 100.99 ± 2.42*** g/L | 22.16 ± 1.10 | 3.33 | 4.83 ± 0.30 | 46.66 | 7.33 ± 0.42 | 63.33 | 7.16 ± 0.30 | 5.00 ± 0.36 | Increased paw volume after 5 hours, Net [1, 7]: 0.30 ± 0.02; % Inhibition (ulcer index) ([3]; rats given indomethacin 30 mg/kg, Compound 8 150 mg/kg, versus indomethacin alone): 40.09%; % Inhibition 30 min (hot plate nociception): 15%; Reaction Time 30 min (hot plate nociception): 7.66 ± 0.42 s; % Inhibition 60 min (hot plate nociception): 47.50%; Reaction Time 60 min (hot plate nociception): 9.83 ± 0.30 s; % Inhibition 120 min (hot plate nociception): 67.50%; Reaction Time 120 min (hot plate nociception): 11.16 ± 0.30 s; Reaction Time, Pre-drug (hot plate nociception): 6.66 ± 0.33 s; % Inhibition (writhing) [5]: 56.86%; Movements (writhing) [5]: 14.66 ± 0.95
CC1=C(CC(=O)O)c2cc(F)ccc2/C1=C\c1ccc([S+](C)[O-])cc1 (stereo not drawn) [Sulindac] | 65.18 | 1.26 ± 0.03 | 0.22 ± 0.01 | 65.02 | 1.25 ± 0.03 | 1.03 ± 0.03 | 1.31 ± 0.04 | 2.28 ± 0.11 | 7.00 ± 0.032 | 5.08 ± 0.28 | 105.78 ± 1.43*** g/L | 93.81 ± 3.05*** g/L | 32.00 ± 3.86 | 13.79 | 5.50 ± 0.34 | 82.75 | 8.83 ± 0.79 | 127.58 | 11.00 ± 0.57 | 4.83 ± 0.40 | % Inhibition 30 min (hot plate nociception): 41.30%; Reaction Time 30 min (hot plate nociception): 10.83 ± 0.47 s; % Inhibition 60 min (hot plate nociception): 54.34%; Reaction Time 60 min (hot plate nociception): 11.83 ± 0.47 s; % Inhibition 120 min (hot plate nociception): 86.95%; Reaction Time 120 min (hot plate nociception): 14.33 ± 0.42 s; Reaction Time, Pre-drug (hot plate nociception): 7.66 ± 0.33 s; % Inhibition (writhing) [5]: 74.01%; Movements (writhing) [5]: 8.83 ± 0.70
